Measurements reported in PubChem BioAssay AID330 (DTP/NCI, 2004).
Values joined by “and” are separate entries in the source; they are usually repeats but may differ in a detail not shown here. Identical values can stand only once. Inconclusive results and toxic doses are left out. The calls were made as follows: active = survival T/C of 150% or more; inactive = T/C below 125% in these data.

Test system: P388 leukemia ip, CD2F1 mice, survival T/C
Assay: NCI In Vivo Anticancer Drug Screen. Data for tumor model P388 Leukemia (intraperitoneal) in CD2F1 (CDF1) mice
Conditions: endpoint: median survival time, higher = longer survival
In short: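 Mice carrying the transplanted tumor received test compound or vehicle. Survival was recorded in each group, and the value is the treated-group measurement divided by that of the vehicle-treated control group.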

[1] = dose: 60.0 mg/kg/injection, schedule: Q01DX005 (ip), vehicle: saline with Tween-80
[2] = dose: 120.0 mg/kg/injection, schedule: Q01DX005 (ip), vehicle: saline with Tween-80
[3] = dose: 240.0 mg/kg/injection, schedule: Q01DX005 (ip), vehicle: saline with Tween-80
[4] = dose: 100.0 mg/kg/injection, schedule: Q01DX009 (ip), vehicle: saline with Tween-80
[5] = dose: 200.0 mg/kg/injection, schedule: Q01DX009 (ip), vehicle: saline with Tween-80
[6] = dose: 50.0 mg/kg/injection, schedule: Q01DX009 (ip), vehicle: saline with Tween-80
[7] = dose: 50.0 mg/kg/injection, schedule: Q01DX005 (ip), vehicle: saline with Tween-80
[8] = dose: 100.0 mg/kg/injection, schedule: Q01DX005 (ip), vehicle: saline with Tween-80
[9] = dose: 200.0 mg/kg/injection, schedule: Q01DX005 (ip), vehicle: saline with Tween-80
[10] = dose: 100.0 mg/kg/injection, schedule: Q04DX002 (ip), vehicle: saline with Tween-80
[11] = dose: 200.0 mg/kg/injection, schedule: Q04DX002 (ip), vehicle: saline with Tween-80
[12] = dose: 400.0 mg/kg/injection, schedule: Q04DX002 (ip), vehicle: saline with Tween-80
[13] = dose: 50.0 mg/kg/injection, schedule: Q01DX009 (ip), vehicle: saline

Measured: T/C

O=C(Nc1ccccc1)N1CCOCC1
inactive: [1] 106 % of control | [2] 103 % of control | [3] 95 % of control

Oc1cc2c3c(c1)-c1c(ccc(O)c1O)CC3NCC2 (centres undefined)
inactive: dose: 3.13 mg/kg/injection, schedule: Q04DX003 (ip), vehicle: DMSO 99 % of control | dose: 6.25 mg/kg/injection, schedule: Q04DX003 (ip), vehicle: DMSO 103 % of control | dose: 12.5 mg/kg/injection, schedule: Q04DX003 (ip), vehicle: DMSO 109 % of control | dose: 25.0 mg/kg/injection, schedule: Q04DX003 (ip), vehicle: DMSO 110 % of control | dose: 50.0 mg/kg/injection, schedule: Q04DX003 (ip), vehicle: DMSO 117 % of control

O=C(NC(CO)C(=O)O)C(Cl)Cl (centres undefined)
inactive: dose: 50.0 mg/kg/injection, schedule: Q01DX005 (ip), vehicle: Klucel (hydroxypropylcellulose) (HPC) 101 % of control | dose: 100.0 mg/kg/injection, schedule: Q01DX005 (ip), vehicle: Klucel (hydroxypropylcellulose) (HPC) 95 % of control | dose: 200.0 mg/kg/injection, schedule: Q01DX005 (ip), vehicle: Klucel (hydroxypropylcellulose) (HPC) 101 % of control

CNC(=O)OCc1ccc(NCCN(C)C)c2c(=O)c3cc(OS(=O)(=O)c4ccc(C)cc4)ccc3oc12
inactive: dose: 25.0 mg/kg/injection, schedule: Q01DX005 (ip), vehicle: water 90 % of control | dose: 50.0 mg/kg/injection, schedule: Q01DX005 (ip), vehicle: water 100 % of control | dose: 100.0 mg/kg/injection, schedule: Q01DX005 (ip), vehicle: water 102 % of control | dose: 200.0 mg/kg/injection, schedule: Q01DX005 (ip), vehicle: water 106 % of control

CCCCCCCCCC(C)(O)C#CC(C)(O)CCCCCCCCC (centres undefined)
inactive: [4] 87 % of control | [5] 95 % of control | dose: 400.0 mg/kg/injection, schedule: Q04DX003 (ip), vehicle: saline with Tween-80 86 % of control

CCC1=C(C)CC(CC(=O)OC)C1=O (centres undefined)
inactive: dose: 50.0 mg/kg/injection, schedule: Q01DX005 (ip), vehicle: saline 95 % of control | dose: 100.0 mg/kg/injection, schedule: Q01DX005 (ip), vehicle: saline 97 % of control | dose: 200.0 mg/kg/injection, schedule: Q01DX005 (ip), vehicle: saline 98 % of control

Oc1nc(-c2ccccc2)sc1-c1ccccc1
inactive: [6] 89 % of control | [4] 92 % of control | [5] 104 % of control

N.N.O=C([O-])/C=C\C(=O)[O-].[Pt]
inactive: dose: 4.38 mg/kg/injection, schedule: Q04DX002 (ip), vehicle: saline with Tween-80 117 % of control

O=C(Nc1cc(Cl)ccc1Cl)O/N=C/c1ccncc1
inactive: [6] 93 % of control | [4] 94 % of control | [5] 94 % of control

[Cl][Sn]1([Cl])[CH2]CCCCCCCCCC[CH2][Sn]([Cl])([Cl])[CH2]CCCCCCCCCC[CH2]1
inactive: [7] 100 % of control | [8] 86 % of control and 96 % of control | [9] 91 % of control

O=C(O)c1nnc(C(=O)O)nn1
inactive: dose: 6.25 mg/kg/injection, schedule: Q01DX009 (ip), vehicle: water 98 % of control | dose: 12.5 mg/kg/injection, schedule: Q01DX009 (ip), vehicle: water 103 % of control | dose: 25.0 mg/kg/injection, schedule: Q01DX009 (ip), vehicle: water 102 % of control | dose: 50.0 mg/kg/injection, schedule: Q01DX009 (ip), vehicle: water 100 % of control | dose: 100.0 mg/kg/injection, schedule: Q01DX009 (ip), vehicle: water 90 % of control

O=C(c1ccc(Cl)cc1)c1no[n+]([O-])c1C(=O)c1ccc(Cl)cc1
inactive: dose: 25.0 mg/kg/injection, schedule: Q01DX009 (ip), vehicle: saline with Tween-80 115 % of control | [6] 111 % of control | [5] 118 % of control

Cc1cc(C)c(C#N)c(=O)[nH]1
inactive: dose: 12.5 mg/kg/injection, schedule: Q04DX003 (ip), vehicle: saline with Tween-80 97 % of control | dose: 25.0 mg/kg/injection, schedule: Q04DX003 (ip), vehicle: saline with Tween-80 103 % of control | dose: 50.0 mg/kg/injection, schedule: Q04DX003 (ip), vehicle: saline with Tween-80 105 % of control | dose: 100.0 mg/kg/injection, schedule: Q04DX003 (ip), vehicle: saline with Tween-80 103 % of control

FC(F)(F)SN1CN(SC(F)(F)F)CN(SC(F)(F)F)CN(SC(F)(F)F)CN(SC(F)(F)F)C1
inactive: dose: 60.0 mg/kg/injection, schedule: Q01DX005 (ip), vehicle: saline 92 % of control | dose: 120.0 mg/kg/injection, schedule: Q01DX005 (ip), vehicle: saline 92 % of control

COc1cc(I)cc(OC)c1OC
inactive: dose: 6.25 mg/kg/injection, schedule: Q01DX009 (ip), vehicle: Klucel (hydroxypropylcellulose) (HPC) 97 % of control | dose: 12.5 mg/kg/injection, schedule: Q01DX009 (ip), vehicle: Klucel (hydroxypropylcellulose) (HPC) 94 % of control | dose: 25.0 mg/kg/injection, schedule: Q01DX009 (ip), vehicle: Klucel (hydroxypropylcellulose) (HPC) 96 % of control | dose: 50.0 mg/kg/injection, schedule: Q01DX009 (ip), vehicle: Klucel (hydroxypropylcellulose) (HPC) 91 % of control

Cc1nnc2n1-c1ccc(Cl)cc1C(c1ccccc1)=[N+]([O-])C2
inactive: [6] 103 % of control | [4] 104 % of control

CN(CCN1C(=O)c2c(Cl)c(Cl)c(Cl)c(Cl)c2C1=O)c1ccccc1
inactive: dose: 50.0 mg/kg/injection, schedule: Q01DX001 (ip), vehicle: saline with Tween-80 95 % of control | dose: 100.0 mg/kg/injection, schedule: Q01DX001 (ip), vehicle: saline with Tween-80 91 % of control | dose: 200.0 mg/kg/injection, schedule: Q01DX001 (ip), vehicle: saline with Tween-80 88 % of control

CCN(CC)CCn1c(C)nc2c1C(=O)c1nc(C)n(CCN(CC)CC)c1C2=O
inactive: dose: 6.25 mg/kg/injection, schedule: Q01DX005 (ip), vehicle: saline 100 % of control | dose: 12.5 mg/kg/injection, schedule: Q01DX005 (ip), vehicle: saline 109 % of control

CCN(CC)CCNc1ccc([N+](=O)[O-])c2sc3cc(Cl)ccc3c(=O)c12
inactive: [7] 100 % of control | [8] 104 % of control | [9] 102 % of control

COc1ccccc1C1c2cc3c(cc2OC(C)(N2CCCC2)C1C)OCO3 (centres undefined)
inactive: [10] 96 % of control | [11] 102 % of control | [12] 99 % of control

COC(=O)C1=CN(CCc2ccc(O)cc2)C(=O)C2C1CC(O)C2C (centres undefined)
inactive: dose: 7.5 mg/kg/injection, schedule: Q01DX005 (ip), vehicle: saline with Tween-80 99 % of control | dose: 15.0 mg/kg/injection, schedule: Q01DX005 (ip), vehicle: saline with Tween-80 93 % of control | dose: 30.0 mg/kg/injection, schedule: Q01DX005 (ip), vehicle: saline with Tween-80 94 % of control

CS(=O)(=O)OCCN(CCOS(C)(=O)=O)c1ccc(C=Nc2ccc(-c3csc(Cc4ccccc4)n3)cc2)cc1
inactive: dose: 6.25 mg/kg/injection, schedule: Q01DX009 (ip), vehicle: saline 115 % of control | dose: 12.5 mg/kg/injection, schedule: Q01DX009 (ip), vehicle: saline 110 % of control
active: dose: 12.5 mg/kg/injection, schedule: Q01DX009 (ip), vehicle: suspension in saline 163 % of control | dose: 25.0 mg/kg/injection, schedule: Q01DX009 (ip), vehicle: suspension in saline 164 % of control | [13] 153 % of control | dose: 50.0 mg/kg/injection, schedule: Q01DX009 (ip), vehicle: suspension in saline 174 % of control

Nc1cc(=O)[nH]c2ncnn12
inactive: dose: 25.0 mg/kg/injection, schedule: Q01DX009 (ip), vehicle: saline 103 % of control | [13] 109 % of control | dose: 100.0 mg/kg/injection, schedule: Q01DX009 (ip), vehicle: saline 102 % of control | dose: 200.0 mg/kg/injection, schedule: Q01DX009 (ip), vehicle: saline 99 % of control

C=C1CC2(CC(C)CCC2C(=C)C)OC1=O (centres undefined)
inactive: dose: 100.0 mg/kg/injection, schedule: Q01DX001 (ip), vehicle: saline 101 % of control | dose: 200.0 mg/kg/injection, schedule: Q01DX001 (ip), vehicle: saline 102 % of control | dose: 400.0 mg/kg/injection, schedule: Q01DX001 (ip), vehicle: saline 99 % of control

OC(c1ccccc1)C1CCNCC1 (centres undefined) (tested in a mixture with another compound)
inactive: [1] 105 % of control | [2] 96 % of control | [3] 99 % of control

Cc1c(-c2cccc(Cl)n2)nc2ccccc2c1C(=O)O
inactive: [10] 99 % of control | [11] 99 % of control | [12] 99 % of control
